Where “and” joins values, the source holds several entries; their conditions need not be identical. Equal entries are not always repeated.
Key:
HT-29 = experiment: MTT cell viability assay; type: cell-based; settings: Homo sapiens, Colon, 48 h, ± SD of triplicates
Experimental: (§1) In addition, the morphological changes in 12b-treated cancer cell lines at concentrations of 6.25 and 12.50 µM are shown in Figure 6.
(§2) According to the procedures of Skehan et al. (with minor modifications), the cancer or normal cells were seeded in a 96-well plate (100 µL/well). After overnight incubation at 37 °C and 5% CO2, the cells were incubated with 50 µM of each tested compound or DMSO (0.5% v/v). After 48 h of incubation, MTT (3-(4,5-dimethylthiazoyl)-2,5-diphenyl-tetrazolium bromide) 5 mg/mL Phosphate-Buffered Saline (PBS) was added, and the plate was incubated for 4 h. After that, acidified sodium dodecyl sulfate (SDS) solution (10% SDS containing 0.01N HCl in 1× PBS) was used to solubilize formazan crystals. The absorbance was measured after 14 h of incubation at λ570–630 nm by a Biotek plate reader (Gen5™).

HepG2 = experiment: MTT cell viability assay; type: cell-based; settings: Homo sapiens, Liver, 48 h, ± SD of triplicates
Experimental: as §1, §2

MCF-7 = experiment: MTT cell viability assay; type: cell-based; settings: Homo sapiens, MCF7, Breast, 48 h, ± SD of triplicates
Experimental: as §1, §2

MDA-MB-231 = experiment: MTT cell viability assay; type: cell-based; settings: Homo sapiens, Breast, 48 h, ± SD of triplicates
Experimental: as §1, §2

HepG2 cells [1] = experiment: Apoptosis analysis, Annexin-V/PI flow cytometry; type: cell-based, human; settings: HepG2, 5.5 or 11 µM, 24 h
Experimental: The mechanism of action of 12b was investigated by evaluating its effectiveness in modulating the cell cycle and induction of apoptosis.
Briefly, HepG2 cells (10^6 cells/mL) were treated either with 12b (5.5 or 11 µM) or with DMSO for 24 h, and then were collected after trypsinization and washed twice with 1× PBS. The induction of apoptosis was analyzed by staining cells with PE-Annexin-V [85] in the presence of PI and analyzed using the BD FACS Calibur Flow cytometer.

HepG2 cells [2] = experiment: Intracellular measurement of NO by DAF-FM diacetate flow cytometry; type: cell-based, human; settings: HepG2, 11 µM, 1 h, DAF-FM DA; DMSO 0.1%
Experimental: The NO-releasing properties of 12b were evaluated by measuring the level of intracellular NO by flow cytometry, using a cell-permeable and photo-stable NO fluorescent indicator, 3-Amino-4-aminomethyl-2’,7’-difluorofluorescein diacetate (DAF-FM DA), with a detection limit of ~3 nM. DAF-FM diacetate penetrates the cells and is deacetylated by esterase enzyme to yield a non-fluorescent dye, DAF-FM, which, upon reaction with NO, produces a fluorescent benzotriazole product. Compound 12b was efficiently able to increase the production of NO in the treated cells (9.9% vs. 0.1% in DMSO-treated cells; Figure 9). Furthermore, compound 12b increased NO production as efficiently as the positive control reference drug JS-k.
HepG2 cells were collected, and the number was adjusted at 10^6 cells/test, and then they were stained with 5 µM DAF-FM™ diacetate (Invitrogen, Cat. No. D-23844) for 60 min at 37 °C and 5% CO2. After that, the stained cells were washed to remove the excess probe, and then were re-incubated for another 30 min. Following that, the stained cells were treated either with 12b (5.5 or 11 µM) or JS-K as a positive nitric oxide donor or DMSO as a negative control for another 1 h. The fluorescence was detected by flow cytometry using the FITC detection system in a BD flow Cytometer.

HepG2 cells [3] = experiment: Wound-healing assay; type: cell-based, human; settings: HepG2, serum-free media, 24 h, vs DMSO-treated cells
Experimental: A wound-healing assay is a simple and economical assay used to investigate the anti-metastatic activity of compounds. Cells were treated with compound 12b in serum-free media for 24 h. After that, the cells were fixed with ice-cold methanol and air-dried, then stained with 0.5% crystal violet.

JNK = experiment: ELISA assay in HepG-2 cells; type: cell-based, human; settings: HepG-2, 11 µM
Experimental: (§3) The mitogen-activated protein kinase (MAPK) pathway is considered to be a key player in the gene expression of survival, proliferative, and anti-apoptotic proteins. Aberrant dysregulation in the MAPK pathway activity has been linked to the overall poor prognosis in various cancers. […] Additionally, compound 12b was further tested against p38, MKK3, and JNK using ELISA assay protocols at a concentration of 11 µM. […] The overexpression of JNK might have contributed to the NO released from 12b and reactive oxygen species (ROS). In summary, the novel anticancer lead compound 12b is worthy of further investigation and activity improvement.
(§4) The p38, MKK3, and JNK assays were performed according to the manufacturer’s ELISA assay protocols. Briefly, a 96-well plate was seeded with a cell density of 10,000–40,000 cells/well. Then, 50 µL of compound 12b or control (DMSO) was added to appropriate wells in triplicate. Following this, 50 µL of the antibody cocktail (in case of p38; Cat. No. ab221012, Abcam (Waltham, MA, USA) and MKK3; Cat. No. PEL-MKK3-S189-T, RayBiotech, Peachtree Corners, GA, USA) was added to each well. The plate was then sealed and incubated for 1–2.5 h at room temperature with gentle shaking. Each well was washed with 1X Wash Buffer PT (4 × 350 µL), and then the plate was inverted and tapped gently against clean paper towels to remove excess liquid. In case of JNK (Cat. No. ab176662, Abcam, Waltham, MA, USA), this washing step was applied before and after adding 1X rabbit […] antibody, then 100 µL of HRP-conjugated anti-rabbit IgG solution was added and the plate was incubated for 1 h at room temperature with gentle shaking followed by washing (4 × 350 µL). After that, 100 µL of TMB Substrate was added to each well and incubated for 15–30 min in the dark with gentle shaking. Finally, 100 µL of Stop Solution was added to each well and the plate was shaken for 1 min to mix well. The OD was recorded at 450 nm.

MKK3 = experiment: ELISA assay in HepG-2 cells; type: cell-based, human; settings: HepG-2, 11 µM
Experimental: as §3, §4

p38 = experiment: ELISA assay in HepG-2 cells; type: cell-based, human; settings: HepG-2, 11 µM
Experimental: as §3, §4

VEGFR-2 = VEGFR-2 (Homo sapiens, UniProt P35968); experiment: VEGFRx kinase assay (BPS Bioscience kit); settings: VEGFR-2 inhibitory activity IC50, duplicate, luminescence kinase kit
Chain of VEGFR-2 (P35968 789-1356 limits assumed): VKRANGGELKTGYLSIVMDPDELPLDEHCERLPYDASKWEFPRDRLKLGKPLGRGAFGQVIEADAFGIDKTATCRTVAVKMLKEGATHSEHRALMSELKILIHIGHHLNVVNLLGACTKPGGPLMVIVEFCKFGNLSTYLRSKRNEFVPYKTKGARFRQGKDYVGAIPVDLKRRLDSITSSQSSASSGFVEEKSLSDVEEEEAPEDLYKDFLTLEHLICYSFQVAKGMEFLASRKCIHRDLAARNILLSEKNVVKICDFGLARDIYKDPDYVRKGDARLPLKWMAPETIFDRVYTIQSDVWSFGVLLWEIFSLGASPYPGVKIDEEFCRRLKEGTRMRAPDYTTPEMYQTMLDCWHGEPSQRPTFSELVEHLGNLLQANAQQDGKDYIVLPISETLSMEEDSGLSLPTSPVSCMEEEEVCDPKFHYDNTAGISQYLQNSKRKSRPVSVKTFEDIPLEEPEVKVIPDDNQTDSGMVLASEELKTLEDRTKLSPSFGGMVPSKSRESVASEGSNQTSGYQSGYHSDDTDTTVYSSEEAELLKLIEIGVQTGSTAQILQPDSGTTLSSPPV
Experimental: The kinase assay was performed according to BPS Bioscience® kinase assay kit protocols [17, 74, 75, 76, 77]. […] The master mixture (25 μL) was added to every well then inhibitor solution of each well, labeled as “Test Inhibitor”, was added. For the “Positive Control” and “Blank”, the same solution without inhibitor (Inhibitor buffer) was added. To the wells designated as “Blank”, 1x Kinase Buffer 1 was added. FLT1/VEGFR2/FLT3 enzyme was thawed on ice and diluted with 1x Kinase Buffer 1 then added to the wells designated “Positive Control” and “Test Inhibitor Control”. The plate was incubated at 30 °C for 45 min then ADP-Glo reagent/Kinase-Glo Max reagent was added to each well. The plate was covered with aluminum foil and incubated at room temperature for 15 min. The luminescence was measured using the microplate reader. In case of FLT1 and FLT3, the plate was incubated for 45 min, then Kinase Detection reagent was added to each well and the plate was covered with aluminum foil and incubated at room temperature for another 45 min. The luminescence was measured immediately using the Tecan–spark® reader. A “Blank” value was subtracted from all readings.

What does the source list for [O-][n+]1onc(-c2ccccc2)c1CNc1ccc(Nc2nc(C(F)(F)F)nc3c2cnn3-c2ccc(Br)cc2)cc1 [12b, 3-(((4-((1-(4-bromophenyl)-6-(trifluoromethyl)-1H-pyrazolo[3,4-d]pyrimidin-4-yl)amino)phenyl)amino)methyl)-4-phenyl-1,2,5-oxadiazole 2-oxide]?
IC50 (HT-29): 15 ± 0.24 µM; IC50 (HepG2): 11.5 ± 0.5 µM; IC50 (MCF-7): 22.3 ± 0.3 µM; IC50 (MDA-MB-231): 13 ± 0.2 µM; induction of apoptosis (HepG2 cells [1]): induction of apoptotic pathways; intracellular NO production (P2) (HepG2 cells [2]): 9.9%; rate of wound healing (HepG2 cells [3]): decreased the rate of wound healing; relative expression of JNK (JNK): overexpressed; relative expression of MKK3 (MKK3): low expression; relative expression of p38 (p38): low expression; IC50 (VEGFR-2): 0.092 µM and 0.09 µM
